Test results as given in US20040087597A1, “Preventives and remedies for complications of diabetes” (priority 2000, published 2004).

What was measured:
[1] = test system: osteopontin mRNA; test: Expression of osteopontin mRNA in the kidney and blood vessels of STZ-induced diabetic rats and normal rats (Northern blotting); format: in vivo, rat; details: for Kidney OPNmRNA/18S / Aorta OPNmRNA/18S / Aorta % Inhibition / Kidney % Inhibition: oral 3 mg/kg once a day, 7 days; for Kidney OPNmRNA/18S / Aorta OPNmRNA/18S: mean ± standard deviation, 3 mg/kg
Description: The effects of pitavastatin calcium on the expression of osteopontin mRNA in the kidney and blood vessels of STZ-induced diabetic rats were investigated according to the method described below.
Namely, 35 mg per kg of body weight of STZ dissolved in the concentration of 50 mg/mL of physiological saline was injected into the tail vein of male Wistar rats (body weight: about 300 g), and the animals were orally administered 1 mL/kg of body weight of 0.5% carboxymethylcellulose solution containing the test drug (pitavastatin calcium) in the concentration of 3mg/mL with a gastric sonde. Thereafter the oral administration was performed once a day by same volume and at fixed time during the experiment. The same volume of only 0.5% carboxymethylcellulose was given by the forced oral administration for the control group. The venous blood was withdrawn from the tail vein on the second day of the experiment and the presence of 200 mg/dL or above of the blood sugar level was confirmed.
24 hours after 7 days administration, the blood was withdrawn under the ether anesthesia, and kidneys and thoracic aorta were isolated. The predetermined amount of the tissue piece in ISOGEN (Wako Pure Chemicals K.K.) was homogenized in a polytron homogenizer and the total RNA was extracted. The total RNA thus obtained was precipitated by using isopropanol. The precipitate was washed with 70% ice cold ethanol and stored at −80° C. in 70% ethanol.
Osteopontin mRNA in the total RNA obtained was detected by the conventional Northern blotting method. That is to say that the total RNA precipitated with 70% ethanol was subjected to centrifugation at 15000 rpm, the precipitate was dried at room temperature after decanting the supernatant and dissolved in a small amount of TE buffer (10 mM Tris-HCl buffer-1 mM EDTA solution). 10 μL out of the solution thus obtained was diluted with 990 μL of TE buffer solution, and the amount of RNA was calculated by measuring the absorbance at 260 nm ultraviolet light of the solution. 40% solution of deionized glyoxal (3.5 μL), 0.1 M of NaHPO4 buffer solution (2.4 μL) and dimethylsulfoxide (11.8 μL) were added to the predetermined amount (10 or 20 μg) of the total RNA (final volume: 6 μL), heated at 50° C. for 1 hour and the total RNA was denatured. 6.3 μL of 10 mM sodium phosphate buffer solution (pH: 6.8) containing 50% glycerol and 0.4% bromophenol blue was added to the solution after the solution was cooled to the room temperature, and then RNA was subjected to electrophoresis using 1.5% agarose gel. RNA was blotted from agarose to nylon membrane in a conventional fashion by using 20×saline-sodium citrate (SSC). The blotted nylon membrane was washed with 2×SSC, and RNA was fixed on the nylon membrane by heating it to 80° C. in vacuo. DNA fragment encoding osteopontin was digested from pCRIIrOP vector with Eco R1 endonuclease and purified with Probe Quant™G-50 Micro Columns (Amersham Pharmacia Biotech Co. Ltd.). DNA fragment encoding Osteopontin thus obtained was hybridized for overnight together with the nylon membrane at 65° C. with Rediprime™ II (Amersham Pharmacia Biotech Co. Ltd.) radioactive probe labeled with ^32P radioisotope. Radioisotope level of the probe bound to the nylon membrane was detected on the X-ray film and the density of the bands were analyzed according to NIH Image. […] was used as the RNA internal standard and the amount of the expression was represented with the comparative intensities of the density of the bands. Osteopontin mRNA was similarly measured in the normal rat experiment.
In Table 1, OPN mRNA/18S represents the ratio of the density of osteopontin mRNA to the density of […] based on the NIH Image Analysis and % inhibition represents that to the respective control groups. The values of OPNmRNA/18S are mean ± standard deviation.

[2] = test system: aortic smooth muscle cells of rats; test: Secretion of osteopontin protein into conditioned medium from aortic smooth muscle cells of rats (Western blotting); format: cell-based, rat; details: normal glucose; pitavastatin calcium 0.03 and 0.3 μM, atorvastatin 0.3 and 3 μM; 48 hours; FIG. 1
Description: The effect of pitavastatin calcium and atorvastatin on the secretion of osteopontin protein into the conditioned culture medium from aortic smooth muscle cells of rats cultured under the normal glucose concentration were measured according to the method described below.
At first, aortic smooth muscle cells of rats (5 to 10 passage culture) were seeded in a 6-well culture plate and the confluent cultures were attained by culturing in low glucose (1000 mg/L) Dulbecco's modified Eagle's medium (DMEM) with 10% fetal bovine serum (FBS: BioWhittaker Co. Ltd.) under 5% CO2 atmosphere at 37° C. […]
After centrifugation, sedimented DE52 gels were washed several times with the same buffer, and 60 μL of 0.2M Tris hydrochloride buffer solution (pH 6.8) containing 5% of 2-mercaptoethanol, 4% of SDS, […], 20% of glycerol and 0.01% of bromophenol blue was added, and heat-treated for 5 minutes at 95° C. […] Chemiluminescences were detected on X-ray film using ECL™ (Amersham Pharmacia Biotech Co. Ltd.). The density of the bands were analyzed according to NIH Image. […]
The density of osteopontin protein measured with NIH Image Analysis for various concentration of pitavastatin calcium are shown in FIG. 1(a), and the density of osteopontin protein measured with NIH Image Analysis for various concentration of atorvastatin are shown in FIG. 1(b).

[3] = test system: aortic smooth muscle cells of rats; test: Expression of osteopontin mRNA in aortic smooth muscle cells of rats, with or without mevalonic acid (northern blotting); format: cell-based, rat; details: FIG. 2(a)
Description: (§1) The effect of mevalonic acid on the suppression with pitavastatin calcium for the expression of osteopontin mRNA and the secretion of osteopontin protein in aortic smooth muscle cells of rats were measured according to the method described below.
(§2) Aortic smooth muscle cells of rats (5 to 10 passage culture) were seeded in a 6-well culture plate and the confluent cultures were attained by culturing in low glucose (1000 mg/L) DMEM with 10% FBS under 5% CO2 atmosphere at 37° C. Thereafter, the medium was replaced with the medium with pitavastatin calcium (8 μM) and/or mevalonic acid (100 μM), and the cells were cultured for another 48 hours. The medium was again replaced with 1.5 mL of FBS-free medium per well, and the cells were cultured further for 48 hours.
After the cultivation, the cells adhered to the culture plate were homogenized together with ISOGEN, RNA were extracted exactly as in Example 1, and the amount of osteopontin mRNA was analyzed by northern blotting method.
(§3) The above measurements were carried out in the three cases when pitavastatin calcium and mevalonic acid were not added, when only pitavastatin calcium was added, and when both pitavastatin calcium and mevalonic acid were added.

[4] = test system: aortic smooth muscle cells of rats; test: Secretion of osteopontin protein from aortic smooth muscle cells of rats, with or without mevalonic acid (western blotting); format: cell-based, rat; details: FIG. 2(b)
Description: as §1, §2
At the same time, the conditioned medium was collected, osteopontin protein was absorbed on DE52, subjected to electrophoresis exactly as in Example 2, and the amount of the secreted osteopontin protein was analyzed by western blotting method.
as §3

[5] = STZ-induced diabetic rats with drug administration, versus diabetic control
[6] = healthy rats with drug administration, versus healthy control
[7] = rats with drug administration, listed as Pitavastatin calcium
[8] = pitavastatin calcium 8 μM alone, 48 hours
[9] = pitavastatin calcium 8 μM with addition of mevalonic acid 100 μM

Row | Molecule | Kidney OPNmRNA/18S ([1]; STZ-induced diabetic rats with drug administration, p = 0.016 vs control) | Kidney OPNmRNA/18S ([1]; STZ-induced diabetic rats with drug administration, p = 0.016 vs control, listed as Pitavastatin calcium) | Aorta OPNmRNA/18S ([1]; STZ-induced diabetic rats with drug administration, p = 0.036 vs control) | Aorta OPNmRNA/18S ([1]; STZ-induced diabetic rats with drug administration, p = 0.036 vs control, listed as Pitavastatin calcium) | Aorta % Inhibition [1, 5] [%] | Kidney % Inhibition [1, 5] [%] | Influence on the expression of osteopontin in the kidney and the aorta ([1]; healthy rats) | Aorta % Inhibition [1, 6] [%] | Kidney % Inhibition [1, 6] [%] | Aorta OPNmRNA/18S ([1]; rats with drug administration) | Kidney OPNmRNA/18S ([1]; rats with drug administration) | Aorta OPNmRNA/18S [1, 7] | Kidney OPNmRNA/18S [1, 7] | Amount of the secretion of osteopontin protein into the conditioned medium [2] | Expression of osteopontin mRNA (ratio to 18S) [3, 8] | Suppressive effect on the expression of osteopontin mRNA [3, 9] | Secretion of osteopontin protein [4, 8] | Suppressive effect on the secretion of osteopontin protein [4, 9]
1 | (+)-bis{(3R, 5S, 6E)-7-[2-cyclopropyl4-(4-fluorophenyl)-3-quinolyl]-3,5-dihydroxy-6-heptenoic acid}-calcium [pitavastatin calcium] | 1.933 ± 0.874 | 1.933 | 1.300 | 1.300 | 59.4 | 40.2 | did not influence | −1.4 | −24.1 | 2.433 ± 0.929 | 1.667 ± 0.321 | 2.433 | 1.667 | inhibited with the statistical significance | suppresses | disappear | suppresses | disappear
2 | CC(C)c1c(C(=O)Nc2ccccc2)c(-c2ccccc2)c(-c2ccc(F)cc2)n1CC[C@@H](O)C[C@@H](O)CC(=O)O [atorvastatin] |  |  |  |  |  |  |  |  |  |  |  |  |  | inhibited with the statistical significance |  |  |  | 
